The source of these data is US20060258754A1, “Method of treating endothelial dysfunction, oxidative stress and related diseases” (priority 2004, published 2006).

Test [1] in a line: Blood glucose and serum triglycerides after chronic administration in alloxan diabetic rats. Type of test: in vivo, alloxan induced diabetic rats. The note with it: 20 mg/kg 2× daily for 4 weeks. An excerpt:
The use of DCI and its derivative for the treatment of a variety of metabolic disorders, more specifically those that are related to insulin resistance have been the subject matter of patents and publications. The treatment of insulin resistance in humans by the administration of DCI was the subject matter of U.S. Pat. No. 5,124,360. Since DCI is found in the food chain it has a safety profile that warrants its use as a nutritional supplement. A method of treating a cluster of diseases with elevated blood sugar by the administration of a dietary supplement of DCI was the subject of U.S. Pat. No. 5,428,066.
Male Wistar rats, weighing between 230-250 g, fed regular chow, with free access to water were separated in four groups (n=10/each). The first two groups, termed normoglycemic, were treated with saline (0.1 mL/100 g/12 h) by the oral route (intragastric gavage) or untreated for four weeks. The second two groups, hyperglycemic, were treated with saline (0.1 mL/100 g/12 h) or treated with D-chiro-inositol (20 mg/kg/12 h) under the same protocol. […] Diabetes was induced by a single intravenous injection of 45 mg/kg alloxan as described by Sannomiya et al., 1997 ( ). Diabetes was diagnosed 96 h after injection by blood glucose assay >200 mg/dL. […]

A further test concerns diabetic RbCC. Nature of the test: Relaxant response of diabetic RbCC to NO and Ach after in vitro inositol addition. The conditions noted are these: in vitro inositol addition (one hour). As to the method:
NO action was investigated in aortic rings and RbCC. […] The data in FIGS. 14 are expressed as mean±SEM of 5 experimental units. * p<0.05, ANOVA followed by Tukey-Kramer, diab (C) vs. Inositol treated. # p<0.05, ANOVA followed by Tukey-Kramer, Eugly vs. Inositol treated. In FIG. 14, Veh=vehicle; C=diabetic control; Diab=diabetic control; Eugly=euglycemic tissue. Relaxation was restored toward or to normal by incubation with inositols.

In the case of `OC1C(O)C(O)C(O)C(O)C1O` [DCI, D-chiro-inositol], in test [1], the blood glucose entry is on record as “decreased” and the serum triglycerides result is “decreased”.
In the case of `CCCC(=O)O[C@@H]1[C@@H](O)[C@@H](O)[C@H](O)[C@H](O)[C@H]1OC(=O)CCC` [dbDCI, 3,4-dibutyryl-D-chiroinositol], the “relaxant response to graded concentrations of NO and to Ach” value in the test on diabetic RbCC was “more effective than the other three inositols”.
